Results taken from patent US20230295133A1, “PROCESS FOR PREPARING A COMPOUND USEFUL TO TREAT MYCOSES” (PULMOCIDE LIMITED, priority 2014, published 2023).
Values after ≈ are worked out from the molar mass of the structure shown. Where two headings read alike, the source gives them in different places.

Tests used:
[1] = system: Aspergillus fumigatus (NCPF2010); assay: Resazurin-microtitre assay of planktonic fungus growth; format: cell-based; conditions: Aspergillus fumigatus
Protocol: This assay was conducted using a modified, published method (Monteiro et al., 2012). Spores of aspergillus fumigatus (NCPF2010, Public Health England, Wiltshire) were cultured in Sabouraud dextrose agar for 3 days. A stock spore suspension was prepared from a Sabouraud dextrose agar culture by washing with PBS-tween (10 mL; PBS containing 0.05% Tween-20, 100 U/mL Penicillin and 100 U/mL Streptomycin). The spore count was assessed using a Neubauer haemocytometer and, using PBS adjusted to 10^6 spores/mL. A working suspension of spores (10^4 spores/mL) was prepared in filter sterilised MOPS RPMI-1640 (50 mL; RPMI-1640 containing 2 mM L-glutamine, 2% glucose and 0.165 M MOPS, buffered to pH 7 with NaOH). Resazurin sodium salt (100 µL of 1% solution; Sigma-Aldrich, Dorset, UK) was added to the spore suspension and mixed well. The spore suspension-resazurin mixture (100 µL/well) was added to 384-well plates (Catalogue number 353962, BD Falcon, Oxford, UK).
Simultaneously, test compounds (0.5 µL DMSO solution) were added to 100 µL of the spore-resazurin mixture in quadruplicate to provide a final DMSO solution of 0.5% using an Integra VIAFLO 96 (Intergra, Zizers, Switzerland). For non-spore control wells, MOPS-RPMI-resazurin solution (100 µL) was added instead of the spore-resazurin mixture. The plate was covered with a Breathe Easier membrane (Catalogue No Z763624, Sigma-Aldrich, Dorset, UK), and incubated (35° C., 5% CO2) until fluorescence in the inoculated wells was double that of the control wells (around 24 hr). The fluorescence of each well (545 nm (excitation) / 590 nm (emission), gain 800, focal height 5.5 mm) was determined using a multi-scanner (Clariostar: BMG, Buckinghamshire, UK). The percentage inhibition for each well was calculated and the MIC50, MIC75 and MIC90 values were calculated from the concentration-response curve generated for each test compound.

[2] = system: aspergillus fumigatus infection of BEAS2B cells; assay: Aspergillus fumigatus infection of bronchial epithelial cells (GM in supernatant); format: cell-based; conditions: Aspergillus fumigatus, read-out: MIC50 Infection of BEAS2B cells
Method in brief: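 BEAS2B cells in 10% FBS RPMI-1640 pre-treated with compound (0.5% DMSO final) for 1 hr at 35 °C, then infected with A. fumigatus conidia (0.5×10^5/ml suspension) for 24 hr at 35 °C. Galactomannan in 1:20-diluted supernatant measured by Platelia GM-EIA; IC50 from percent-inhibition concentration-response curves.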

[3] = Cell viability: resazurin assay; format: cell-based, human; conditions: human, BEAS2B cells; n = 3-5
Method in brief: (§1)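 BEAS2B cells in RPMI-LHC8, exposed to compound for 1 day at 37 °C (0.5% DMSO final), then resazurin added for a further 4 h. Fluorescence (ex 545/em 590 nm) gives % viability loss vs 0.5% DMSO vehicle; CC50 from concentration-response curve.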

[4] = system: Aspergillus fumigatus L98H (TR34/L98H); assay: Broth microdilution assay (modified EUCAST); format: cell-based; conditions: Aspergillus fumigatus, read-out: MIC75 against Aspergillus fumigatus isolate L98H
Method in brief: (§2)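 Spores from 3-day Sabouraud cultures (working suspension 2 × 10^5 spores/mL) were added to an equal volume of RPMI-1640 (2 mM L-glutamine, 0.5% BSA, 2% glucose, 0.165 M MOPS, pH 7) containing compound, in quadruplicate. After 48 hr at 35 °C, OD530 gave percent inhibition. MIC50, MIC75 and MIC90 came from concentration-response curves.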

[5] = system: Aspergillus fumigatus NCPF2010; assay: Broth microdilution assay (modified EUCAST); format: cell-based; conditions: Aspergillus fumigatus
Method in brief: as §2

[6] = system: Aspergillus fumigatus NCPF7099; assay: Broth microdilution assay (modified EUCAST); format: cell-based; conditions: Aspergillus fumigatus, NCPF7099, n = 3, read-out: MIC75 against Aspergillus fumigatus isolate NCPF7099
Method in brief: as §2

[7] = system: Aspergillus fumigatus NCPF7100; assay: Broth microdilution assay (modified EUCAST); format: cell-based; conditions: Aspergillus fumigatus, NCPF7100, read-out: MIC75 against Aspergillus fumigatus isolate NCPF7100
[8] = system: aspergillus fumigatus (ATCC 13073 [strain: NIH 5233]); assay: In vivo anti-fungal activity, prophylactic and therapeutic treatment of infected immunocompromised neutropenic mice; set-up: species or system A/J mice; conditions: prophylactic treatment (days 0, 1, 2 and 3); 0.4 mg/mL
BEAS2B cells = assay: Cell viability: resazurin assay; format: cell-based, human; conditions: n = 3-5
Method in brief: as §1

[9] = system: Aspergillus flavus ATCC204304; assay: Fungus panel screening, CLSI broth microdilution; format: cell-based
Protocol: (§3) Fungus panel screening was conducted by Eurofins Panlabs Inc. The MIC and MIC50 values of the test articles were determined following the guidelines of the Clinical and Laboratory Standards Institute, broth microdilution methods for yeast (CLSI M27-A2), (CLSI, 2002) and for filamentous fungi (CLSI M38-A), (CLSI, 2008).

[10] = system: Chaectomium globosum ATCC44699; assay: Fungus panel screening, CLSI broth microdilution; format: cell-based
Protocol: as §3

[11] = system: Cryptococcus neoformans ATCC24067; assay: Fungus panel screening, CLSI broth microdilution; format: cell-based
Protocol: as §3

[12] = 50% inhibition by visual inspection (CLSI)
[13] = 100% inhibition by visual inspection (CLSI), read-out: MIC100

Structure (SMILES) | MIC50 ([1]; NCPF2010, read-out: MIC50 Planktonic fungal growth) [nM] | MIC ([1]; NCPF2010, read-out: MIC75 Planktonic fungal growth) [nM] | MIC50 [2] [nM] | CC50 at 1 day [3] [µM] | MIC [4] [µM] | MIC ([5]; NCPF2010, read-out: MIC75 against Aspergillus fumigatus isolate NCPF2010) [µM] | MIC [6] [µM] | MIC [7] [µM] | % Inhibition versus Infected Controls, GM in BALF [8] [%] | % Inhibition versus Infected Controls, GM in serum [8] [%] | % Inhibition versus Infected Controls, Lung Fungal Load [8] [%] | CC50 (BEAS2B cells) [µM] | MIC ([5]; NCPF2010, broth microdilution assay, n = 3, read-out: MIC75 against Aspergillus fumigatus isolate NCPF2010) [µM] | MIC50 [9, 12] [µg/mL] | MIC [9, 13] [µg/mL] | MIC50 [10, 12] [µg/mL] | MIC [10, 13] [µg/mL] | MIC50 [11, 12] [µg/mL] | MIC [11, 13] [µg/mL]
Cc1cc(N2CCN(c3ccc(C(=O)Nc4ccc(F)cc4F)cc3)CC2)ccc1OC[C@@H]1CO[C@@](Cn2cncn2)(c2ccc(F)cc2F)C1 [Example 2, 4-(4-(4-(((3R,5R)-5-((1H-1,2,4-Triazol-1-yl)Methyl)-5-(2,4-Difluorophenyl) Tetrahydrofuran-3-yl)Methoxy)-3-Methylphenyl)Piperazin-1-yl)-N-(2,4-Difluorophenyl) Benzamide] | 0.74 (≈ 0.519 ng/mL) | 3.06 (≈ 2.14 ng/mL) | 1.42 (≈ 0.995 ng/mL) | > 14.3 | 0.0816 (≈ 57.2 ng/mL) | 0.007 (≈ 4.91 ng/mL) | 0.0283 (≈ 19.8 ng/mL) | 0.0213 (≈ 14.9 ng/mL) | 43 | 27 | 25 | – | – | – | – | – | – | – | –
C[C@@H](c1ncncc1F)[C@](O)(Cn1cncn1)c1ccc(F)cc1F [Voriconazole] | – | – | – | – | – | – | – | – | – | – | – | > 28.6 | 0.496 (≈ 173 ng/mL) | 1 (≈ 2.86 µM) | 2 (≈ 5.73 µM) | 0.5 (≈ 1.43 µM) | 1 (≈ 2.86 µM) | 0.016 (≈ 0.0458 µM) | 1 (≈ 2.86 µM)
